Experimental data published in US20090298834A1, “4-(AMINOMETHYL)CYCLOHEXANAMINE DERIVATIVES AS CALCIUM CHANNEL BLOCKERS” (priority 2008, published 2009).

target: T1, human α1G T-type channels (Homo sapiens, UniProt O43497); assay: T-type calcium channel block, whole cell patch clamp (α1G); assay type: cell-based; conditions: HEK cells stably expressing human α1G; mainly non-inactivated protocol; values above 10 μM represented as 10 μM, values below 0.30 μM represented as 0.30 μM
T1 construct: expressed in transfected cells; host or cells: HEK 293
Protocol: (§1) T-type calcium channel blocking activity was assayed in human embryonic kidney cells, HEK 293, stably transfected with the T-type calcium channel subunits. Briefly, cells were cultured in Dulbecco's modified eagle medium (DMEM) supplemented with 10% fetal bovine serum, 200 U/ml penicillin and 0.2 mg/ml streptomycin at 37° C. with 5% CO2. At 85% confluency cells were split with 0.25% trypsin/1 mM EDTA and plated at 10% confluency on glass coverslips. At 12 hours the medium was replaced and the cells stably transfected using a standard calcium phosphate protocol and the appropriate calcium channel cDNA's. Fresh DMEM was supplied and the cells transferred to 28° C./5% CO2. Cells were incubated for 1 to 2 days prior to whole cell recording.
(§2) Standard patch-clamp techniques were employed to identify blockers of T-type currents. Briefly, previously described HEK cell lines stably expressing human α1G, α1H and α1I T-type channels were used for all the recordings (passage #: 4-20, 37° C., 5% CO2). Whole cell patch clamp experiments were performed using an Axopatch 200B amplifier (Axon Instruments, Burlingame, Calif.) linked to a personal computer equipped with pCLAMP software. Data were analyzed using Clampfit (Axon Instruments) and SigmaPlot 4.0 (Jandel Scientific). To obtain T-type currents, plastic dishes containing semi-confluent cells were positioned on the stage of a ZEISS AXIOVERT S100 microscope after replacing the culture medium with external solution (see below). Whole-cell patches were obtained using pipettes (borosilicate glass with filament, O.D.: 1.5 mm, I.D.: 0.86 mm, 10 cm length), fabricated on a SUTTER P-97 puller with resistance values of ˜5 MΩ (see below for internal solution).
(§3) In the non-inactivating protocol, the holding potential is set at −110 mV and with a pre-pulse at −100 mV for 1 second prior to the test pulse at −40 mV for 50 ms. In the inactivation protocol, the pre-pulse is at approximately −85 mV for 1 second, which inactivates about 15% of the T-type channels.
(§4) Test compounds were dissolved in external solution, 0.1-0.01% DMSO. After 10 min rest, they were applied by gravity close to the cell using a WPI microfil tubing. The “non-inactivated” pre-pulse was used to examine the resting block of a compound. The “inactivated” protocol was employed to study voltage-dependent block. However, the initial data shown below were mainly obtained using the non-inactivated protocol only. . IC50 values are shown for various compounds of the invention in Table 4 for the drug of interest. Values are shown in μM and values above 10 μM are simply represented as 10 μM.

T1 sequence (O43497 whole entry): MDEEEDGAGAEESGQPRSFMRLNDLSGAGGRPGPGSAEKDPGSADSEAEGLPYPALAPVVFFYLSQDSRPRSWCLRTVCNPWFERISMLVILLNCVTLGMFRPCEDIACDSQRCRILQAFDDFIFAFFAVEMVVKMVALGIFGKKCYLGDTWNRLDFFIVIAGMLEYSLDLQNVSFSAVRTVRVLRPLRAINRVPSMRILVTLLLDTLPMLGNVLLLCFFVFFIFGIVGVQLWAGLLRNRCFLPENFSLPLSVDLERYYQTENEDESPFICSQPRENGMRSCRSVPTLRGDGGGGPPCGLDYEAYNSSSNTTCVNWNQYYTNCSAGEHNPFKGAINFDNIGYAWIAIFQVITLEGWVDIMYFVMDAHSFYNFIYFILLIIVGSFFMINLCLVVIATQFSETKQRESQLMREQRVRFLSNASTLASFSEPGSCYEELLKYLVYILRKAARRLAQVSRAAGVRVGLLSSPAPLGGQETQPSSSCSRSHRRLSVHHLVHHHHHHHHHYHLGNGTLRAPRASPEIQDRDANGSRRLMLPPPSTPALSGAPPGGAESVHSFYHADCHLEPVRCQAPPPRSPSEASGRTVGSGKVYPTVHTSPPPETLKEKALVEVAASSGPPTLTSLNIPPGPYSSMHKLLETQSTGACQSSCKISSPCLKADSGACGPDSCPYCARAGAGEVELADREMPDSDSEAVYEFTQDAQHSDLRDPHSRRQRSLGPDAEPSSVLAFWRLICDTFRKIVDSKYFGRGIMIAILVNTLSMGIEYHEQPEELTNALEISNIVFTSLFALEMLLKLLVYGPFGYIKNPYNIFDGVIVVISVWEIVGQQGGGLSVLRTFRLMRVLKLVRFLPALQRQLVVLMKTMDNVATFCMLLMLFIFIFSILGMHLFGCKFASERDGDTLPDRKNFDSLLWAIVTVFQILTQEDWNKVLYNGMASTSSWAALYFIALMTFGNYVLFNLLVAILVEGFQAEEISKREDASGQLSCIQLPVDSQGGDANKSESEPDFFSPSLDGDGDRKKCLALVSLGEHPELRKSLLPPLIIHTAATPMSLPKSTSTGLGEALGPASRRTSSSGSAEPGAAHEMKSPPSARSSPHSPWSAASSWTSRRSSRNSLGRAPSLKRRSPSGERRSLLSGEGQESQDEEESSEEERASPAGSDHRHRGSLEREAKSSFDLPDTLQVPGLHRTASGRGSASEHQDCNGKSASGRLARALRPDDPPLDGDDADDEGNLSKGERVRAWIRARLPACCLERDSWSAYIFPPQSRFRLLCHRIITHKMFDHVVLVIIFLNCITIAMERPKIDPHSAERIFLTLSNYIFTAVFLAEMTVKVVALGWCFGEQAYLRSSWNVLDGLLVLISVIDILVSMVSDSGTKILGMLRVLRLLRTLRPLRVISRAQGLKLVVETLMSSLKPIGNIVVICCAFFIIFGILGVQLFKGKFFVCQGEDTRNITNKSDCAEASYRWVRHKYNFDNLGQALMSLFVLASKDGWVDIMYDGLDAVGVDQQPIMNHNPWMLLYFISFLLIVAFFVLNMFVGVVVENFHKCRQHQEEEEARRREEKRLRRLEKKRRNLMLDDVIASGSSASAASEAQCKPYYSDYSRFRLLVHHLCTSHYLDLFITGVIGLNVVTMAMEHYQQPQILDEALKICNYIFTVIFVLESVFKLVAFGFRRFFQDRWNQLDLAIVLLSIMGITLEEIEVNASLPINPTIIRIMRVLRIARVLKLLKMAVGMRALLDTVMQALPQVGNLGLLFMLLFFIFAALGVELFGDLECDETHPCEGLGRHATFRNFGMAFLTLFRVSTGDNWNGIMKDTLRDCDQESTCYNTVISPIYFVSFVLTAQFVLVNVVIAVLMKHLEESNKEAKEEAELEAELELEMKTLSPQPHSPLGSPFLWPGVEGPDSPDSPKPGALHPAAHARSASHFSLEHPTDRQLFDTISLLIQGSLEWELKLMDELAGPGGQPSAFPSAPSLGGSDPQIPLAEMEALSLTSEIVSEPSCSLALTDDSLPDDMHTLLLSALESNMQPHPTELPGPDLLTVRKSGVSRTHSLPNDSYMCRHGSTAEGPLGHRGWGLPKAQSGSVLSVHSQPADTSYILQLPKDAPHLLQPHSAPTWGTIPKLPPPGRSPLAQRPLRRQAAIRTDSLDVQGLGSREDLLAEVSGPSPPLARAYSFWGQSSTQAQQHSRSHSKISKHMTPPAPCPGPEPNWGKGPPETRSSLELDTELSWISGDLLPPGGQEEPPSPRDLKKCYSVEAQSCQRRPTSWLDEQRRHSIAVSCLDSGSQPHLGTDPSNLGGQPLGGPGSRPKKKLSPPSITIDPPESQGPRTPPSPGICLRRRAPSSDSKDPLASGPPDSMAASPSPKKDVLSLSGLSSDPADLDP

SMILES	IC50
N[C@H]1CC[C@@H](CC(=O)Nc2cc(C(F)(F)F)cc(C(F)(F)F)c2)CC1 [Compound 106, 2-(cis-4-aminocyclohexyl)-N-(3,5-bis(trifluoromethyl)phenyl)acetamide]	6.11 µM
NC1(C(=O)N[C@H]2CC[C@@H](CC(=O)NCc3cccc(OC(F)(F)F)c3)CC2)CCCCC1 [Compound 109, 1-amino-N-(cis-4-(2-oxo-2-(3-(trifluoromethoxy)benzylamino)ethyl)cyclohexyl)cyclohexanecarboxamide]	≥ 10 µM
O=C(C[C@H]1CC[C@@H](NC(=O)C2(c3ccccc3)CCNCC2)CC1)NCc1cccc(OC(F)(F)F)c1 [Compound 114, N-(cis-4-(2-oxo-2-(3-(trifluoromethoxy)benzylamino)ethyl)cyclohexyl)-4-phenylpiperidin-4-carboxamide]	≥ 10 µM
O=C(C[C@H]1CC[C@H](NC(=O)[C@H]2CCCN2)CC1)Nc1cc(C(F)(F)F)cc(C(F)(F)F)c1 [Compound 118, (R)-N-(trans-4-(2-(3,5-bis(trifluoromethyl)phenylamino)-2-oxoethyl)cyclohexyl)pyrrolidine-2-carboxamide]	4.89 µM
O=C(C[C@H]1CC[C@H](NC(=O)[C@@H]2CCCCN2)CC1)Nc1cc(C(F)(F)F)cc(C(F)(F)F)c1 [Compound 120, (S)-N-(trans-4-(2-(3,5-bis(trifluoromethyl)phenylamino)-2-oxoethyl)cyclohexyl)piperidine-2-carboxamide]	4.44 µM
O=C(NC[C@H]1CC[C@@H](NC(=O)C2(c3ccccc3)CCNCC2)CC1)c1cc(C(F)(F)F)cc(C(F)(F)F)c1 [Compound 128, N-(cis-4-((3,5-bis(trifluoromethyl)benzamido)methyl)cyclohexyl)-4-phenylpiperidine-4-carboxamide]	5.78 µM
Cc1ccc(-c2csc(NC(=O)C[C@H]3CC[C@@H](NC(=O)[C@@H]4C[C@@H](c5ccccc5)CN4)CC3)n2)cc1 [Compound 129, (2S,4S)-N-(cis-4-(2-oxo-2-(4-p-tolylthiazol-2-ylamino)ethyl)cyclohexyl)-4-phenylpyrrolidine-2-carboxamide]	5.29 µM
Cc1ccc(-c2csc(NC(=O)C[C@H]3CC[C@@H](NC(=O)[C@@H]4C[C@H](c5ccccc5)CN4)CC3)n2)cc1 [Compound 130, (2S,4R)-N-(cis-4-(2-oxo-2-(4-p-tolylthiazol-2-ylamino)ethyl)cyclohexyl)-4-phenylpyrrolidine-2-carboxamide]	4.11 µM
Cc1ccc(-c2csc(NC(=O)C[C@H]3CC[C@@H](NC(=O)[C@@H]4CC[C@H](c5ccccc5)N4)CC3)n2)cc1 [Compound 131]	7.56 µM
O=C(NC[C@H]1CC[C@H](NC(=O)C2(c3ccccc3)CCNCC2)CC1)c1cc(C(F)(F)F)cc(C(F)(F)F)c1 [Compound 136, N-(trans-4-((3,5-bis(trifluoromethyl)benzamido)methyl)cyclohexyl)-4-phenylpiperidine-4-carboxamide]	3.81 µM
Cc1ccc(-c2csc(NC(=O)C[C@H]3CC[C@@H](NC(=O)[C@H]4CC[C@@H](c5ccccc5)N4)CC3)n2)cc1 [Compound 138, (2R,5S)-N-(cis-4-(2-oxo-2-(4-p-tolylthiazol-2-ylamino)ethyl)cyclohexyl)-5-phenylpyrrolidine-2-carboxamide]	4.88 µM
NC1(C(=O)N[C@H]2CC[C@@H](CNC(=O)c3cc(C(F)(F)F)cc(C(F)(F)F)c3)CC2)CCCC1 [Compound 140, N-((cis-4-(1-aminocyclopentanecarboxamido)cyclohexyl)methyl)-3,5-bis(trifluoromethyl)benzamide]	9.67 µM
NC1(C(=O)N[C@H]2CC[C@@H](CNC(=O)c3cc(F)cc(C(F)(F)F)c3)CC2)CCCC1 [Compound 141, N-((cis-4-(1-aminocyclopentanecarboxamido)cyclohexyl)methyl)-3-fluoro-5-(trifluoromethyl)benzamide]	≥ 10 µM
NC1(C(=O)N[C@H]2CC[C@H](CNC(=O)c3cc(C(F)(F)F)cc(C(F)(F)F)c3)CC2)CCCC1 [Compound 142, N-((trans-4-(1-aminocyclopentanecarboxamido)cyclohexyl)methyl)-3,5-bis(trifluoromethyl)benzamide]	≥ 10 µM
O=C(C[C@H]1CC[C@@H](NC(=O)C2CCNCC2)CC1)Nc1cc(C(F)(F)F)cc(C(F)(F)F)c1 [Compound 144, N-(cis-4-(2-(3,5-bis(trifluoromethyl)phenylamino)-2-oxoethyl)cyclohexyl)piperidine-4-carboxamide]	3.82 µM
O=C(C[C@H]1CC[C@@H](NC(=O)[C@H]2C[C@H](O)CN2)CC1)Nc1cc(C(F)(F)F)cc(C(F)(F)F)c1 [Compound 145]	7.6 µM
NC1(C(=O)N[C@H]2CC[C@@H](CC(=O)Nc3cc(C(F)(F)F)cc(C(F)(F)F)c3)CC2)CCOCC1 [Compound 147, 4-amino-N-(cis-4-(2-(3,5-bis(trifluoromethyl)phenylamino)-2-oxoethyl)cyclohexyl)tetrahydro-2H-pyran-4-carboxamide]	4.59 µM
O=C(C[C@H]1CC[C@@H](NC(=O)C2(O)CCNCC2)CC1)Nc1cc(C(F)(F)F)cc(C(F)(F)F)c1 [Compound 148, N-(cis-4-(2-(3,5-bis(trifluoromethyl)phenylamino)-2-oxoethyl)cyclohexyl)-4-hydroxypipendine-4-carboxamide]	2.94 µM
NC1(C(=O)N[C@H]2CC[C@@H](CC(=O)Nc3cc(C(F)(F)F)cc(C(F)(F)F)c3)CC2)CC1 [Compound 149, 1-amino-N-(cis-4-(2-(3,5-bis(trifluoromethyl)phenylamino)-2-oxoethyl)cyclohexyl)cyclopropanecarboxamide]	4.07 µM
O=C(NC[C@H]1CC[C@H](NCCNS(=O)(=O)C(F)(F)F)CC1)c1cc(C(F)(F)F)cc(C(F)(F)F)c1 [Compound 155, 3,5-bis(trifluoromethyl)-N-((trans-4-(2-(trifluoromethylsulfonamido)ethylamino)cyclohexyl)methyl)benzamide]	2.65 µM
O=C(NC[C@H]1CC[C@@H](NCCNS(=O)(=O)C(F)(F)F)CC1)c1cc(F)cc(C(F)(F)F)c1 [Compound 156, 3-fluoro-5-(trifluoromethyl)-N-((cis-4-(2-(trifluoromethylsulfonamido)ethylamino)cyclohexyl)methyl)benzamide]	≥ 10 µM

target: T2, human α1H T-type channels (Homo sapiens, UniProt O95180); assay: T-type calcium channel block, whole cell patch clamp (α1H); assay type: cell-based; conditions: HEK cells stably expressing human α1H; mainly non-inactivated protocol; values above 10 μM represented as 10 μM
T2 construct: expressed in transfected cells; host or cells: HEK 293
Protocol: as §1, §2, §3, §4

T2 sequence (O95180 whole entry): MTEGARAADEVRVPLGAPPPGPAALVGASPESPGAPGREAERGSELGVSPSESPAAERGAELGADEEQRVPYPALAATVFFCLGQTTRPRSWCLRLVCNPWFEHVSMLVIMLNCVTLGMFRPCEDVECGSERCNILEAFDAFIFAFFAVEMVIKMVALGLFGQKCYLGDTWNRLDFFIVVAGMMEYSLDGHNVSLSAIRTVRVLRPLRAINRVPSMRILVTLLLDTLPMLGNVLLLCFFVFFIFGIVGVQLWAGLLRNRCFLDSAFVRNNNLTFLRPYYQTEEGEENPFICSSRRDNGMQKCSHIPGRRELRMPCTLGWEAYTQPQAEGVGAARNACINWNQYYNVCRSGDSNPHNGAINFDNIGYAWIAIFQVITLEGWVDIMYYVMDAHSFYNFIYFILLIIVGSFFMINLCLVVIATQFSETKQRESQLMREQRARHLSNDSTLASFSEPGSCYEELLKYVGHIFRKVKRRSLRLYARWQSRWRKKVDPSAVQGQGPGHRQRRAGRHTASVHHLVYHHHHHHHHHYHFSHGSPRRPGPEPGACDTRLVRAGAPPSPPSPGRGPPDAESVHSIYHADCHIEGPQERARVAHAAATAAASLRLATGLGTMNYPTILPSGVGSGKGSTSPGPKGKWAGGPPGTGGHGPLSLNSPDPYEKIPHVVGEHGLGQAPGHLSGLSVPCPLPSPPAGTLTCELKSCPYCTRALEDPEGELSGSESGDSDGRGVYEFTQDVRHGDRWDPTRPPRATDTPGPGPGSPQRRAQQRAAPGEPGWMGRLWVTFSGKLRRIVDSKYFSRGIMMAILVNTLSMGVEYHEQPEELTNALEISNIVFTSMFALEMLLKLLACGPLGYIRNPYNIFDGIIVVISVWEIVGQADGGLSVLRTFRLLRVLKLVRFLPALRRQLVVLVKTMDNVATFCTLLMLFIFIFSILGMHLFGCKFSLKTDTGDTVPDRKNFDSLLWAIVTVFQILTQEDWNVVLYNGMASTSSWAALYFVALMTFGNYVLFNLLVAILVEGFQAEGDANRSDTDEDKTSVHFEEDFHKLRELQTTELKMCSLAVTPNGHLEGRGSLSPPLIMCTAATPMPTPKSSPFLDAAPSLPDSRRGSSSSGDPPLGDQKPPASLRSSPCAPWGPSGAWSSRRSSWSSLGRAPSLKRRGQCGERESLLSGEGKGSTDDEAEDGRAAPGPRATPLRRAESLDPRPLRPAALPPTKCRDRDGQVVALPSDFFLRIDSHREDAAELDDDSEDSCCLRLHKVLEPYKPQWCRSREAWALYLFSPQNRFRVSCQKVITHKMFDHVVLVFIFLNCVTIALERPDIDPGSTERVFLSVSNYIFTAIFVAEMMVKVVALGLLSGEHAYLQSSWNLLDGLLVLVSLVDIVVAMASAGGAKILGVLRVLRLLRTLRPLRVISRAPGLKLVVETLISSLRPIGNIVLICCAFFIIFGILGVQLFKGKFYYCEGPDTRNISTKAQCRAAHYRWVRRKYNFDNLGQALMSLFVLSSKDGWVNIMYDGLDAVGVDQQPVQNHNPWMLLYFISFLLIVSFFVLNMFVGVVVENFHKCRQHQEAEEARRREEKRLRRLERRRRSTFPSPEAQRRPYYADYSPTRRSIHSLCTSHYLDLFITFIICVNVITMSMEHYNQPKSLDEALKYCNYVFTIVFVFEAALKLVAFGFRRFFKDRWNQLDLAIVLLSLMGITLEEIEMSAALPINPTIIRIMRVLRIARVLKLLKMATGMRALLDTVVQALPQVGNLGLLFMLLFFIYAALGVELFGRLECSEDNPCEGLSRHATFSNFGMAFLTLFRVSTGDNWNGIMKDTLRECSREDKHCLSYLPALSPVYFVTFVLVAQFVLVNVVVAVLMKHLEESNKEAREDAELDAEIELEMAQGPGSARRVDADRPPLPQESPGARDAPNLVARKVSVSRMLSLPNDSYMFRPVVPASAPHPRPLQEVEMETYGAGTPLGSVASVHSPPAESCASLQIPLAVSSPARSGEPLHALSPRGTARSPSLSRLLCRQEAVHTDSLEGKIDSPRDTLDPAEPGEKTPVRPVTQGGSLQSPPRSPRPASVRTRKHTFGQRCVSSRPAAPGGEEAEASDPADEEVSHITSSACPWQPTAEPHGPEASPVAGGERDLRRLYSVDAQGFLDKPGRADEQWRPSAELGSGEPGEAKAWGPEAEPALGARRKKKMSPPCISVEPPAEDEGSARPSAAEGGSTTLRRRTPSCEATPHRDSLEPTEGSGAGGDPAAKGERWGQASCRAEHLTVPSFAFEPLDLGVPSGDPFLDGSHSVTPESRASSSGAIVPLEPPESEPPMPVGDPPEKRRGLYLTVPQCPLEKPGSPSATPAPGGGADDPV

SMILES	IC50
Cc1cc(CN[C@H]2CC[C@@H](CNC(=O)c3cc(F)cc(C(F)(F)F)c3)CC2)cc(C)c1O [Compound 5, 3-fluoro-N-((cis-4-(4-hydroxy-3,5-dimethylbenzylamino)cyclohexyl)methyl)-5-(trifluoromethyl)benzamide]	0.25 µM
CC(C)(C)OC(=O)NC1(CN[C@H]2CC[C@@H](CNC(=O)c3cc(C(F)(F)F)cc(C(F)(F)F)c3)CC2)CCCC1 [Compound 6, tert-butyl 1-((cis-4-((3,5-bis(trifluoromethyl)benzamido)methyl)cyclohexylamino)methyl)cyclopentylcarbamate]	0.28 µM
Cc1cccc(CN[C@H]2CC[C@H](CNC(=O)c3cc(C(F)(F)F)cc(C(F)(F)F)c3)CC2)c1O [Compound 28, N-((trans-4-(2-hydroxy-3-methylbenzylamino)cyclohexyl)methyl)-3,5-bis(trifluoromethyl)benzamide]	2.24 µM
COc1ccc(CN[C@H]2CC[C@@H](CC(=O)Nc3nc(-c4ccc(C)cc4)cs3)CC2)c(O)c1 [Compound 36, 2-(cis-4-(2-hydroxy-4-methoxybenzylamino)cyclohexyl)-N-(4-p-tolylthiazol-2-yl)acetamide]	≥ 10 µM
Cc1ccc(-c2csc(NC(=O)C[C@H]3CC[C@@H](NCC4(NC(=O)OC(C)(C)C)CCCC4)CC3)n2)cc1 [Compound 37]	5.37 µM
Cc1ccc(-c2csc(NC(=O)C[C@H]3CC[C@@H](NCC(C)(C)NC(=O)OC(C)(C)C)CC3)n2)cc1 [Compound 38, tert-butyl 2-methyl-1-(cis-4-(2-oxo-2-(4-p-tolylthiazol-2-ylamino)ethyl)cyclohexylamino)propan-2-ylcarbamate]	7.93 µM
CC(C)(C)OC(=O)NCCN[C@H]1CC[C@@H](CNC(=O)c2cc(Cl)cc(C(F)(F)F)c2)CC1 [Compound 99, tert-butyl 2-(cis-4-((3-chloro-5-(trifluoromethyl)benzamido)methyl)cyclohexylamino)ethylcarbamate]	0.44 µM
